Reference: ChEMBL document CHEMBL2346515, “Discovery of 4-alkylamino-7-aryl-3-cyanoquinoline LRRK2 kinase inhibitors” (Bioorg Med Chem Lett, 2013)

What was measured:
[1] = test system: Mus musculus; assay: In vivo inhibition of mouse LRRK2 G2019S mutant phosphorylation at Ser935 expressed in mouse brain at 100 mg/kg, po measured after 3 hrs by ELISA; type: functional
[2] = Ratio of drug uptake in brain to plasma of mouse expressing mouse LRRK2 G2019S mutant at 100 mg/kg, po; type: ADME, organism-based; parameters: dose 100 mg/kg, route oral; conditions: read-out: BPR
[3] = Ratio of drug uptake in brain to plasma of mouse expressing mouse LRRK2 G2019S mutant at 30 mg/kg, po; type: ADME, organism-based; parameters: dose 30 mg/kg, route oral; conditions: read-out: BPR
[4] = test system: Plasma; assay: Plasma concentration in mouse expressing mouse LRRK2 G2019S mutant at 30 mg/kg, po; type: ADME, organism-based; parameters: dose 30 mg/kg, route oral; conditions: in vivo
[5] = molecular target: Serine/threonine-protein kinase PLK1 (Homo sapiens) (UniProt P53350); assay: Inhibition of PLK1 (unknown origin) at 10 uM by single point assay
Chain of Serine/threonine-protein kinase PLK1 (Homo sapiens) (P53350 whole entry): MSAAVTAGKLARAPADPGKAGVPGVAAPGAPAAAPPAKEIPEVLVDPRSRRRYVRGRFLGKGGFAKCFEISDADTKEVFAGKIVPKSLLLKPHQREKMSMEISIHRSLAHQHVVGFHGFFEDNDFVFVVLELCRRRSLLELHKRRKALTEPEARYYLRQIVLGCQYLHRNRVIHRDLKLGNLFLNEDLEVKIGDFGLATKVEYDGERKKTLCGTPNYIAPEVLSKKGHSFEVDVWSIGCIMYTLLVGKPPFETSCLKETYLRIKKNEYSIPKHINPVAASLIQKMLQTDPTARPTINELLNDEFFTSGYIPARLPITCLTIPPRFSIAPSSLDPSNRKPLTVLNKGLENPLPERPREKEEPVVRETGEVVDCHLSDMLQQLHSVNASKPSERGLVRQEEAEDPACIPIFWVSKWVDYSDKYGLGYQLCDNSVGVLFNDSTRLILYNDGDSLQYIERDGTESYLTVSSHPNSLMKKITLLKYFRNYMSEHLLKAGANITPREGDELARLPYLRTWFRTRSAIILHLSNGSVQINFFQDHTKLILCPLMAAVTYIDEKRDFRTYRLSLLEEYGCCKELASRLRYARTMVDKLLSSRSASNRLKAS

[6] = molecular target: Platelet-derived growth factor receptor alpha (Homo sapiens) (UniProt P16234); assay: Inhibition of PDGFRalpha (unknown origin) at 10 uM by single point assay
[7] = molecular target: Dual specificity protein kinase CLK1 (Homo sapiens) (UniProt P49759); assay: Inhibition of CLK1 (unknown origin) at 10 uM by single point assay
Chain of Dual specificity protein kinase CLK1 (Homo sapiens) (P49759 whole entry, looked up): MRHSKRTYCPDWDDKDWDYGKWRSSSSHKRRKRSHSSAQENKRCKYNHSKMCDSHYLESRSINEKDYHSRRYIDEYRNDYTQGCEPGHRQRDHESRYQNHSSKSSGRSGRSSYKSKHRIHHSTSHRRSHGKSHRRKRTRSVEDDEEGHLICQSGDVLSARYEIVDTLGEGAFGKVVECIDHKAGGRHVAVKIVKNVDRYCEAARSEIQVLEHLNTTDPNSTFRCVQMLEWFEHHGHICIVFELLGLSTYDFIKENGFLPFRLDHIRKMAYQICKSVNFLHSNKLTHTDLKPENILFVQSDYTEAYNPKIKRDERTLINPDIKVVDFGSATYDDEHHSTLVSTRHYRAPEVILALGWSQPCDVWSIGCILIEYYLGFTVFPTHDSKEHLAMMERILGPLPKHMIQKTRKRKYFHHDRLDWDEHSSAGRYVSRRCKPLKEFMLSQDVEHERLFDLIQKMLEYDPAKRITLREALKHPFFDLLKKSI

[8] = molecular target: T1, Dual specificity protein kinase TTK (Homo sapiens) (UniProt P33981); assay: Inhibition of TTK (unknown origin) at 10 uM by single point assay
T1 sequence (whole entry): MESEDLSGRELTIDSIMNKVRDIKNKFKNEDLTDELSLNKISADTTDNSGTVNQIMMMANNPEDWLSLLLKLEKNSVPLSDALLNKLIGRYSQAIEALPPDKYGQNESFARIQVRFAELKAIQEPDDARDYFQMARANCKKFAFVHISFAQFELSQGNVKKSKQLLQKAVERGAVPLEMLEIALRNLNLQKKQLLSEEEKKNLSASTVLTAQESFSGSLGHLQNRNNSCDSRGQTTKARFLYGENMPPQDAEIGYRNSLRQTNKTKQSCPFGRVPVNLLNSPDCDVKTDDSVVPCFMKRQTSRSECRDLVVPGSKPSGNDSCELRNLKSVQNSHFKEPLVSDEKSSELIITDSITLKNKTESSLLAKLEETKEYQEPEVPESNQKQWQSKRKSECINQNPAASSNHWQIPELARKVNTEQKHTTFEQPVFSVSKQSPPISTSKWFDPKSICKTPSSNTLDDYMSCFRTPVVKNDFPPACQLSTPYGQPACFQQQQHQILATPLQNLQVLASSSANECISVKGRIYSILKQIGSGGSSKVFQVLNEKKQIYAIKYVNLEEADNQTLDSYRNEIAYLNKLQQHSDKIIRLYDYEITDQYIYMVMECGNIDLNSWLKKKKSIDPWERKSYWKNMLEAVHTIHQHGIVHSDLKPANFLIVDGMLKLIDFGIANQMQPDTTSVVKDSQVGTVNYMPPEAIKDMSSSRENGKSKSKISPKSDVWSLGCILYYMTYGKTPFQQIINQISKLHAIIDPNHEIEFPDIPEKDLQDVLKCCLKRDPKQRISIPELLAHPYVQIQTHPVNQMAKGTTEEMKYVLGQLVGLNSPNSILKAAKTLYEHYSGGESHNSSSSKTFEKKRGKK

[9] = molecular target: Insulin receptor (Homo sapiens) (UniProt P06213); assay: Inhibition of INSR (unknown origin) at 10 uM by single point assay
Chain of Insulin receptor (Homo sapiens) (P06213 28-758 limits assumed): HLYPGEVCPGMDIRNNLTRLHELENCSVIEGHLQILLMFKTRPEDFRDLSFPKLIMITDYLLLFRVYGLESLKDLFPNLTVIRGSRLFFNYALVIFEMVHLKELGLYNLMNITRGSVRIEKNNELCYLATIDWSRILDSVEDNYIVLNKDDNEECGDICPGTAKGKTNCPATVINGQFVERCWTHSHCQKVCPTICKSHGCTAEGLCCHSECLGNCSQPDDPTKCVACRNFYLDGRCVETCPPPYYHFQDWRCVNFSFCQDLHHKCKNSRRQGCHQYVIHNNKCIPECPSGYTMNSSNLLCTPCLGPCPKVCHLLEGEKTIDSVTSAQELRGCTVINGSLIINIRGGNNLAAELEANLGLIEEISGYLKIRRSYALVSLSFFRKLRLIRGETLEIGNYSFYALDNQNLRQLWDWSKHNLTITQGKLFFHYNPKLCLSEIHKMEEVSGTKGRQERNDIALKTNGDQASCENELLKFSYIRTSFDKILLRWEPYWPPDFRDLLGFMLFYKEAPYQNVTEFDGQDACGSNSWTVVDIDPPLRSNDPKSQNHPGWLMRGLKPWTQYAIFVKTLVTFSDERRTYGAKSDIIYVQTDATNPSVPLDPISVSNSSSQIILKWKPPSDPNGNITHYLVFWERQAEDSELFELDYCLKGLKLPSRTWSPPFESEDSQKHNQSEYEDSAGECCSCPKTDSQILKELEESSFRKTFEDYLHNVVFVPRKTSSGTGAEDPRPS
Chain of Insulin receptor (Homo sapiens) (P06213 763-1382 limits assumed): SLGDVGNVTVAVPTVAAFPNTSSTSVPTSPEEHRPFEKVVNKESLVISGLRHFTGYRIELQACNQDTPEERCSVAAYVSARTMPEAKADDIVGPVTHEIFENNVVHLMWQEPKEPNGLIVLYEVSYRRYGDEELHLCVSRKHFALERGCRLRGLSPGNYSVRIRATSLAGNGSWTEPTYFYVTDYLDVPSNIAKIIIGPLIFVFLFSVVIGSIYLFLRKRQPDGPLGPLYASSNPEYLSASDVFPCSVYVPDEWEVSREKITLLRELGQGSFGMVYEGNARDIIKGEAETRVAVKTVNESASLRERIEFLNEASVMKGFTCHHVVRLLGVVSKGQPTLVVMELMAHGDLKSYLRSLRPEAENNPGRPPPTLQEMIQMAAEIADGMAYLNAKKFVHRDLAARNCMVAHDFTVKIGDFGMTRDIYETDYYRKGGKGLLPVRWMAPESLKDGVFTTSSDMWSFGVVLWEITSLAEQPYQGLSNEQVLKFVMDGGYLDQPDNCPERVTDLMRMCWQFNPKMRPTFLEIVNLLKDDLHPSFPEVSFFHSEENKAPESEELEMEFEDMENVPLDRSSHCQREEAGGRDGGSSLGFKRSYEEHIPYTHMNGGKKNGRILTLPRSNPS

[10] = molecular target: Serine/threonine-protein kinase MARK2 (Homo sapiens) (UniProt Q7KZI7); assay: Inhibition of MARK2 (unknown origin) at 10 uM by single point assay
Chain of Serine/threonine-protein kinase MARK2 (Homo sapiens) (Q7KZI7 whole entry): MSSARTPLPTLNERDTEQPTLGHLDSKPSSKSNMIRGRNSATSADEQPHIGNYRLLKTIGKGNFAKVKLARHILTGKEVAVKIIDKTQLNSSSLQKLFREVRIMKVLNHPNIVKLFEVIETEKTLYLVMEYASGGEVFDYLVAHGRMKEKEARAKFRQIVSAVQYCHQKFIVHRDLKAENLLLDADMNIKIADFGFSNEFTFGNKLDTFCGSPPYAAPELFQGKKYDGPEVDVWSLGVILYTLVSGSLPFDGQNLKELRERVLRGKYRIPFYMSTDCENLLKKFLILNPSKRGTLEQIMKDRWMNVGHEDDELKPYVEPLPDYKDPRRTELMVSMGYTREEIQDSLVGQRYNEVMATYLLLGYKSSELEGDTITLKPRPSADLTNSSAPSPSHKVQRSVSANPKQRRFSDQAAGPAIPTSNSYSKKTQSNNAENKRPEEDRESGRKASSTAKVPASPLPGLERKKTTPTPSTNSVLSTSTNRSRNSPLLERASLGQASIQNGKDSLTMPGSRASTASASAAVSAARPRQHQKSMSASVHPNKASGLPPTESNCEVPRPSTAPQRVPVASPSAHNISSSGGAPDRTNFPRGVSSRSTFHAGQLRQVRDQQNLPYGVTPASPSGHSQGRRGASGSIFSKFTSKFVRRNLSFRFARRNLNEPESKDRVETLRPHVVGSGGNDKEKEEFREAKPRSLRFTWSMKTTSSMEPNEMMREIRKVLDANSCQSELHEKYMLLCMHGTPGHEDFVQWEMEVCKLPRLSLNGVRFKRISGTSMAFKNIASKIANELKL

[11] = molecular target: T2, Serine/threonine-protein kinase Chk1 (Homo sapiens) (UniProt O14757); assay: Inhibition of CHK1 (unknown origin) at 10 uM by single point assay
T2 sequence (whole entry): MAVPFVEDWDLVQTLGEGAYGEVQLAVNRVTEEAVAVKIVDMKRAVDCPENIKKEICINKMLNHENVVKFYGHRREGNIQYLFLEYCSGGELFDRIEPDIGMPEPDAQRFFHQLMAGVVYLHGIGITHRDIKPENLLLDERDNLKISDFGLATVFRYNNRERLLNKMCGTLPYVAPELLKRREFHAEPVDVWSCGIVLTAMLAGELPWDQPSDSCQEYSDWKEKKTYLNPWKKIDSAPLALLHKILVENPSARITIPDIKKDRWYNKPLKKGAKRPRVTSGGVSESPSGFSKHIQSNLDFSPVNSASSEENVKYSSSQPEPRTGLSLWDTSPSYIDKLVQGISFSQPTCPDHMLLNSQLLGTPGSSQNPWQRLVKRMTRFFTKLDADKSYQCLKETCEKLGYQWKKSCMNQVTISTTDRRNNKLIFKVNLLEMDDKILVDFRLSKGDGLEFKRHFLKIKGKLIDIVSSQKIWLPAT

[12] = molecular target: Leucine-rich repeat serine/threonine-protein kinase 2 (Homo sapiens, UniProt Q5S007); conditions: 10 uM
Description: Inhibition of LRRK2 (unknown origin) at 10 uM by single point assay

[13] = molecular target: Proto-oncogene tyrosine-protein kinase receptor Ret (Homo sapiens) (UniProt P07949); assay: Inhibition of RET (unknown origin) at 10 uM by single point assay
[14] = molecular target: Glycogen synthase kinase-3 beta (Homo sapiens) (UniProt P49841); assay: Inhibition of GSK3beta (unknown origin) at 10 uM by single point assay
Chain of Glycogen synthase kinase-3 beta (Homo sapiens) (P49841 whole entry, looked up): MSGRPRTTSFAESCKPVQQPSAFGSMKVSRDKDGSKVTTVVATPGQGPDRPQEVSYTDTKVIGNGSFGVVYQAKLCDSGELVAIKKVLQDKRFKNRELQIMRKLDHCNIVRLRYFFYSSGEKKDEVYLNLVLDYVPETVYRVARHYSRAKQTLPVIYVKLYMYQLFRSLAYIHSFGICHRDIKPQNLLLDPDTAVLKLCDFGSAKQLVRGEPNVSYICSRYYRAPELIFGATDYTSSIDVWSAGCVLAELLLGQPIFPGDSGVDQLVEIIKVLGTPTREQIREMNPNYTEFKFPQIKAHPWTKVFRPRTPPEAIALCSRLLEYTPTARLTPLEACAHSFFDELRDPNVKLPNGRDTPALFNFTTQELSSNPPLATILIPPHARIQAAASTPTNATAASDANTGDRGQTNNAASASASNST

[15] = molecular target: T3, Serine/threonine-protein kinase 3 (Homo sapiens) (UniProt Q13188); assay: Inhibition of STK3 (unknown origin) at 10 uM by single point assay
T3 sequence (whole entry): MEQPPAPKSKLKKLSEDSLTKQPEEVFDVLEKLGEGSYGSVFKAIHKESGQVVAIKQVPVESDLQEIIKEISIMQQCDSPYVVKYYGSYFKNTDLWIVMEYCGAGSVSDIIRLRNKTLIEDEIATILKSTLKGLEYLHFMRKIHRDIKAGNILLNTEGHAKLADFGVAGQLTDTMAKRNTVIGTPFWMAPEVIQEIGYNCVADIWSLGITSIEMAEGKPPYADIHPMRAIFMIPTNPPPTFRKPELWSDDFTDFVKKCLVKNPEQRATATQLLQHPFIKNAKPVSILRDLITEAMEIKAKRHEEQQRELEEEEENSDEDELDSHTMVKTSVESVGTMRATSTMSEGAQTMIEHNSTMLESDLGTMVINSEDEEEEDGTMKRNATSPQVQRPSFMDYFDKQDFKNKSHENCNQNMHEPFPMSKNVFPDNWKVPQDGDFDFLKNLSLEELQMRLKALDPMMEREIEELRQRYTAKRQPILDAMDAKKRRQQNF

[16] = molecular target: Mitogen-activated protein kinase 1 (Homo sapiens) (UniProt P28482); assay: Inhibition of MAPK1 (unknown origin) at 10 uM by single point assay
Chain of Mitogen-activated protein kinase 1 (Homo sapiens) (P28482 whole entry): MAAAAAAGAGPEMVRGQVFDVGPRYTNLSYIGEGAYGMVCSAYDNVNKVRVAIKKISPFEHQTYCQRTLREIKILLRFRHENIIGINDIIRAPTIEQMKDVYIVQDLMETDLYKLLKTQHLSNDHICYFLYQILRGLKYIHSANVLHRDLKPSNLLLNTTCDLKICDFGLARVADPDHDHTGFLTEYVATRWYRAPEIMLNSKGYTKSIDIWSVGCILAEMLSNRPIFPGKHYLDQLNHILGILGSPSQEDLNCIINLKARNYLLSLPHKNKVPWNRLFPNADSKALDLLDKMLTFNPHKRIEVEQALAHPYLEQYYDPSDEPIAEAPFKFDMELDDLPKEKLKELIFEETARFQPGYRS

SMILES	inhibition in vivo at 100 mg/kg [1] [%]	Kp [2]	Kp [3]	Cp [4] [ng/mL]	inhibition [5] [%]	inhibition [6] [%]	inhibition [7] [%]	inhibition [8] [%]	inhibition [9] [%]	inhibition [10] [%]	inhibition [11] [%]	inhibition [12] [%]	inhibition [13] [%]	inhibition [14] [%]	inhibition [15] [%]	inhibition [16] [%]
CC(C)Nc1c(C#N)cnc2cc(-c3cnn(C)c3)ccc12	44	2.1	1.2	4.7												
C[C@@H](Nc1c(C#N)cnc2cc(-c3ccc(-n4ccoc4=O)cc3)ccc12)C1CC1					8	5	7	11	0	40	31	81	12	1	18	-2
